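Values below derive from 48-hour exposures of cells grown in 96-well plates, with endpoints linearly interpolated between the two concentrations bracketing the appropriate inhibition level. GI50 marks 50% less growth.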 Activity calls are given as the source filed them. Cut-off read from the data, not from the text of the source: active = GI50 up to about 1.1 µM and inactive = higher.
Assays:
Assay in all cases: growth of human tumour cells (NCI), 48 h
[1] = system: DLD-1
[2] = system: DMS-114
[3] = system: DMS-273
[4] = system: HOP-18
[5] = system: KM-20L2
[6] = system: LXFL 529
[7] = system: RXF 631
[8] = system: SNB-78
[9] = system: XF498

Measured: GI50

COc1ccc2nc3cccc(C(=O)NCCN(C)C)c3nc2c1
inactive: [1] 1.37 µM | [2] 1.29 µM | [3] 1.44 µM | [4] 3.19 µM | [5] 2.2 µM | [6] 1.26 µM | [7] 3.17 µM | [8] 2.88 µM
active: [9] 0.292 µM

CC1=C2C3OC(=O)C(C)C3C(O)C[C@@]2(C)C(=O)CC1 (stereo partly specified)
inactive: [1] > 100 µM | [2] > 100 µM | [3] > 100 µM | [4] > 100 µM | [5] > 100 µM | [6] > 100 µM | [7] > 100 µM | [8] > 100 µM

CN(C)C(=O)/N=c1\ss/c(=N\C(=S)N(C)C)n1-c1ccccc1
inactive: [1] 26.6 µM | [2] 10.3 µM | [4] > 10 µM | [5] 54 µM | [6] 7.55 µM | [7] 36.1 µM | [8] 65.8 µM | [9] 43.7 µM
active: [3] 0.125 µM

CN(C)CC(/C(Cc1ccccc1)=N\NC(=O)C[n+]1ccccc1)c1ccccc1 (stereo unspecified)
inactive: [2] > 100 µM | [3] 38.8 µM | [4] > 100 µM | [5] > 100 µM | [6] > 100 µM | [7] > 100 µM | [8] 53.2 µM | [9] > 100 µM

O=c1c([Se]c2coc3ccccc3c2=O)coc2ccccc12
inactive: [1] 18.2 µM | [2] 17.5 µM | [3] 11 µM | [4] 15.7 µM | [5] 12 µM | [6] 15.4 µM | [8] 19.9 µM | [9] 16.8 µM

CC(C)CCCC(C)[C@H]1CCC2[C@@H]3CCC4Nc5c(cnn5-c5ccccc5)C[C@]4(C)C3CC[C@@]21C (stereo partly specified)
inactive: [1] > 100 µM | [2] 52.8 µM | [3] 2.72 µM | [4] > 100 µM | [5] 13.1 µM | [6] 24.3 µM | [7] 13.1 µM | [8] 18.7 µM | [9] 15.3 µM

N#Cc1ccccc1NC(=O)C(=O)C(C(=O)c1ccccc1-c1ccccc1)C1OC(=O)c2ccccc21 (stereo unspecified)
inactive: [1] 16 µM | [2] 15.5 µM | [5] 20.9 µM | [8] 11.2 µM | [9] 16 µM

CCOC(=O)NC(=O)c1cn(CCCOC(=O)CCCCCCCCC(=O)OCCCn2cc(C(=O)NC(=O)OCC)c(=O)[nH]c2=O)c(=O)[nH]c1=O
inactive: [1] 17.8 µM | [2] 6.65 µM | [3] 20.5 µM | [4] 29.1 µM | [5] 34.5 µM | [6] 28 µM | [8] 8 µM | [9] 20.7 µM

C[n+]1c2ccccc2c(/C=N\NS(=O)(=O)c2ccc(Cl)cc2)c2ccccc21
inactive: [1] 67.5 µM | [2] 28.3 µM | [3] 41.8 µM | [5] 42.4 µM | [8] > 100 µM | [9] 27.3 µM

CCC(=O)OC1CCn2c1nc1c2C(=O)C(C)=C(NC(C)=O)C1=O (stereo unspecified)
active: [2] 0.425 µM
inactive: [1] 1.84 µM | [3] 1.79 µM | [6] 1.41 µM | [8] 1.79 µM

Cc1ccc(/C=C/C(=O)c2sc(-n3nc(-c4ccccc4)cc3-c3ccccc3)nc2C)cc1
inactive: [1] > 100 µM | [2] 10.6 µM | [3] > 100 µM | [4] > 100 µM | [5] > 100 µM | [8] > 100 µM

CC(C)N(C(=O)C12C3C4C5C3C1(C#N)C5C42)C(C)C (stereo unspecified)
inactive: [1] > 100 µM | [2] > 100 µM | [3] > 100 µM | [4] > 100 µM | [5] > 100 µM | [6] > 100 µM | [8] > 100 µM | [9] > 100 µM

Cc1ccc(NC(=O)c2cc3cc(/N=N/c4ccc(Br)cc4)ccc3oc2=O)cc1
active: [4] < 0.01 µM
inactive: [1] 46.5 µM | [2] 37 µM | [3] 41.8 µM | [8] > 100 µM | [9] > 100 µM

O=C1C(=O)N(c2ccc(Cl)cc2Cl)C(=O)C(=O)C1c1nc2ccccc2s1
inactive: [1] > 51.8 µM | [2] > 72.4 µM | [3] > 100 µM | [4] > 100 µM | [5] > 100 µM | [6] 50.6 µM | [9] > 55 µM

CCOP1(=O)C=C(C)C(=C(Cl)Cl)C(C)=C1 (stereo unspecified)
inactive: [1] 24 µM | [4] 13.8 µM | [5] 2.68 µM | [6] 3.78 µM | [7] 5.87 µM | [8] > 10 µM
active: [9] 0.548 µM

COc1ccc2cc3c4cc(OC)c(OC)cc4ccn3c2c1
inactive: [1] > 100 µM | [2] > 100 µM | [3] > 100 µM | [4] > 100 µM | [6] > 100 µM | [8] > 100 µM | [9] > 100 µM

Cc1cc(C)c(C(=O)/C=C/c2ccccc2)c(C)c1
inactive: [1] 22.6 µM | [2] 24.1 µM | [4] > 100 µM | [5] 32.6 µM | [6] 31.6 µM | [9] 12.6 µM

COc1cccc(/C=C\c2cc(OC)c(OC)c(OC)c2)c1
inactive: [2] 1.48 µM | [6] 2.49 µM | [8] 1.24 µM | [9] 2.8 µM
active: [1] 0.49 µM | [3] 0.553 µM | [5] 0.37 µM | [7] 0.836 µM

Nc1ccn(C2OC(COC(=O)C34CC5CC(CC(C5)C3)C4)C(O)C2O)c(=O)n1 (stereo unspecified)
inactive: [1] > 100 µM | [2] 12.4 µM | [3] > 100 µM | [4] > 100 µM | [5] > 100 µM | [8] > 100 µM

CC(=O)Nc1ccc(-c2nnc(SCC(=O)Nc3cccc(C)c3)o2)cc1
inactive: [1] 10.5 µM | [2] 2.34 µM | [3] 10.3 µM | [4] 16.1 µM | [5] 10.2 µM | [6] 10.9 µM | [8] 13.7 µM

O=C(NCCOC(=O)CCCCCCCCC(=O)OCCNC(=O)NC(=O)c1cn(Cc2ccccc2)c(=O)[nH]c1=O)NC(=O)c1cn(Cc2ccccc2)c(=O)[nH]c1=O
inactive: [1] > 100 µM | [2] > 100 µM | [3] > 100 µM | [5] > 100 µM | [6] > 100 µM | [8] > 100 µM | [9] > 100 µM

COC1=CC(=O)NCCN1
inactive: [1] > 100 µM | [2] > 100 µM | [3] 78.7 µM | [4] > 100 µM | [5] > 100 µM | [6] > 100 µM | [7] > 100 µM | [8] > 100 µM | [9] > 100 µM

CCOC(=O)CCC(NC(=O)c1ccc(/N=C/c2nc3ccccc3nc2-c2ccccc2)cc1)C(=O)OCC (stereo unspecified)
inactive: [1] > 100 µM | [2] > 100 µM | [3] > 100 µM | [4] 35.4 µM | [5] > 100 µM | [6] > 100 µM | [7] > 100 µM | [8] > 100 µM | [9] > 100 µM

Cc1c(C)c2ccc3oc4ccccc4c3c2oc1=O
inactive: [1] > 100 µM | [2] 86.7 µM | [4] > 100 µM | [5] > 100 µM | [6] > 100 µM | [7] > 100 µM | [8] > 100 µM

CCOCN1COCN/C1=N/C#N
inactive: [1] > 100 µM | [2] 71.4 µM | [3] > 100 µM | [4] > 100 µM | [5] > 100 µM | [6] > 100 µM | [7] > 100 µM | [8] > 100 µM | [9] > 100 µM

CC1(C)OC(=O)[C@@](C)([C@H](O)c2ccccc2)O1
inactive: [1] > 100 µM | [2] 56.8 µM | [3] > 100 µM | [5] > 100 µM | [6] > 100 µM | [7] 79.4 µM | [8] > 100 µM | [9] > 100 µM

O=S1(=O)CCN(c2ccccc2CC(c2c[nH]c3ccccc23)c2c[nH]c3ccccc23)CC1
inactive: [1] 4.37 µM | [2] 5.3 µM | [3] 8.63 µM | [4] 14.4 µM | [5] 8.85 µM | [6] 4.13 µM | [8] 30.1 µM

N#Cc1nn(-c2ccc(Cl)cc2)c(=N)c2c(N)n3nc(-c4ccccc4)cc3nc12
inactive: [9] 41.4 µM
active: [1] 1 µM | [3] 1 µM | [4] < 0.01 µM | [5] 1 µM | [6] 0.705 µM | [8] 1 µM
